The IC50 is the concentration that inhibits the measured activity by half.

Common to all, as to type: biochemical
Assay [1] addresses Cathepsin L (Homo sapiens, UniProt P07711). The experiment in a line: Non-TMPRSS2 protease panel: Cathepsin L. The note with it: 10-dose, 3-fold from 10 μM. The protocol:
(§1) Biochemical activity of compound 1 (racemic mixture, batch 1), compound 3 (racemic), compound 11, and compound 2 (enantiomer 1, batch 1) in proteases indicated in Table 21, Table 22, Table 23, and Table 24, respectively, were measured by testing the compounds in a 10-dose IC50 with a 3-fold series dilution starting at 10 μM against the proteases. The protease activities were monitored as a time-course measurement of the increase in fluorescence signal from fluorescently-labeled peptide substrate, and initial linear portion of slope (signal/min) was analyzed. The curve fits were performed when the activities at the highest concentration of compounds were less than 65%.

The target of assay [2] is T1, PLpro (Severe acute respiratory syndrome coronavirus 2, UniProt P0DTD1).
T1 construct: Plasma Kallikrein, Plasmin, Plpro, TACE
The experiment in a line: Non-TMPRSS2 protease panel: PLpro. The note with it: 10-dose, 3-fold from 10 μM. On the procedure:
as §1

The target in assay [3] is T2, Kallikrein 13 (Homo sapiens, UniProt Q9UKR3).
T2 sequence (Q9UKR3 17-277): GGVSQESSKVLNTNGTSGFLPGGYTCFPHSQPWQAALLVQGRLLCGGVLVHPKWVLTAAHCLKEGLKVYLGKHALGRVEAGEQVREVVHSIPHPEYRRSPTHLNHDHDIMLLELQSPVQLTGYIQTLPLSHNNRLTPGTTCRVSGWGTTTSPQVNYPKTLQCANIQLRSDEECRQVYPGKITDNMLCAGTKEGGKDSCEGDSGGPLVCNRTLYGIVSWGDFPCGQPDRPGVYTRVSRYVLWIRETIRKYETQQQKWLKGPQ
The experiment in a line: Non-TMPRSS2 protease panel: Kallikrein 13. The note with it: 10-dose, 3-fold from 10 μM. The protocol:
as §1

Assay [4] deals with Kallikrein 1 (Homo sapiens, UniProt P06870). The experiment in a line: Non-TMPRSS2 protease panel: Kallikrein 1. Particulars: 10-dose, 3-fold from 10 μM. On the procedure: as §1
Chain of Kallikrein 1 (P06870 25-262): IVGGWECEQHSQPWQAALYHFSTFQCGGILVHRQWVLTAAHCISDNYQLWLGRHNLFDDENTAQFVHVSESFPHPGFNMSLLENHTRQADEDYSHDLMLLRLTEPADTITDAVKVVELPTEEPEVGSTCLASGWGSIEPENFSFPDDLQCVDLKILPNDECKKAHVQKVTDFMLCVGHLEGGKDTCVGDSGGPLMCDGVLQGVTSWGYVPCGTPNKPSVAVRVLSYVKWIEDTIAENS
Assay [5] concerns the target Tryptase b2 (Homo sapiens, UniProt P20231). The experiment in a line: Non-TMPRSS2 protease panel: Tryptase b2. Particulars: 10-dose, 3-fold from 10 μM. The protocol: as §1
In assay [6] the target is T3, FXa (Homo sapiens, UniProt P00742).
T3 construct: consisting of FXa, Kallikrein 1, MMP 1
T3 sequence (P00742 235-488 limits assumed): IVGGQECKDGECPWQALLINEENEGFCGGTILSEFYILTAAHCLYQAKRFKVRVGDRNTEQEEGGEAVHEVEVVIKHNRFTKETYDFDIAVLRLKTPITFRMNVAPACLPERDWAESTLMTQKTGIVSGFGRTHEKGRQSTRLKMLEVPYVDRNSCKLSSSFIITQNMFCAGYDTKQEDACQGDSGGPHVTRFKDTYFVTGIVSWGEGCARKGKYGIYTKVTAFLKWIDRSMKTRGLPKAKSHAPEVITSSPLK
T3 sequence (P00742 41-179 partner limits assumed): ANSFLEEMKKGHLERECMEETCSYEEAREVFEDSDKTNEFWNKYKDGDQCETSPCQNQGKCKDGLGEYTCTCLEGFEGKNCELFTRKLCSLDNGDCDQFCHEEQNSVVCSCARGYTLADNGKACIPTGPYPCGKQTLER
The experiment in a line: Non-TMPRSS2 protease panel: FXa. The note with it: 10-dose, 3-fold from 10 μM. On the procedure: as §1

Assay [7] has as its target Plasma Kallikrein (Homo sapiens, UniProt P03952). The experiment in a line: Non-TMPRSS2 protease panel: Plasma Kallikrein. Particulars: 10-dose, 3-fold from 10 μM. The protocol:
as §1

Assay [8] deals with MMP 14 (Homo sapiens, UniProt P50281). The experiment in a line: Non-TMPRSS2 protease panel: MMP 14. Particulars: 10-dose, 3-fold from 10 μM. On the procedure:
as §1

The target of assay [9] is T4, FXIa (Homo sapiens, UniProt P03951).
T4 construct: FVIIa, Fxa, FXIa, Furin
T4 sequence (P03951 388-625 limits assumed): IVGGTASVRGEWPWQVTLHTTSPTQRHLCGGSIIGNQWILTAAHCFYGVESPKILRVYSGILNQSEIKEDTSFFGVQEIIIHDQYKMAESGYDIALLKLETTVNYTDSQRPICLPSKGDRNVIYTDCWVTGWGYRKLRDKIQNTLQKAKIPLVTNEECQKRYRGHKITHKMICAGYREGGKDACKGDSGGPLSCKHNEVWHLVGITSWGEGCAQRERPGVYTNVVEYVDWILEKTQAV
T4 sequence (P03951 19-387 partner limits assumed): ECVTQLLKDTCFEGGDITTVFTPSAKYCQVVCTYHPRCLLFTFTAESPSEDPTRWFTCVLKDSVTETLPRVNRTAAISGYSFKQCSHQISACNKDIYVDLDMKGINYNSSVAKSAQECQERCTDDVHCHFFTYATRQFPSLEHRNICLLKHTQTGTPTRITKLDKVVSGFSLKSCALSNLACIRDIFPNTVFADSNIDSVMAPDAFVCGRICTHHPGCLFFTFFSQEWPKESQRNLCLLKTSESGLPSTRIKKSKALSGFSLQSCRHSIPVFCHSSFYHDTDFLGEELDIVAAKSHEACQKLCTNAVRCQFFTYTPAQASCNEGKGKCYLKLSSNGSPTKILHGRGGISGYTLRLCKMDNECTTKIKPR
The experiment in a line: Non-TMPRSS2 protease panel: FXIa. The note with it: 10-dose, 3-fold from 10 μM. On the procedure:
as §1

Assay [10] deals with MMP 10 (Homo sapiens, UniProt P09238). The experiment in a line: Non-TMPRSS2 protease panel: MMP 10. The note with it: 3-fold from 10 μM. The protocol:
as §1

In assay [11] the target is Thrombin a (Homo sapiens, UniProt P00734). The experiment in a line: Non-TMPRSS2 protease panel: Thrombin a. The note with it: 10-dose, 3-fold from 10 μM. On the procedure: as §1
For assay [12], the target named is T5, Kallikrein 14 (Homo sapiens, UniProt Q9P0G3).
T5 sequence (Q9P0G3 25-251): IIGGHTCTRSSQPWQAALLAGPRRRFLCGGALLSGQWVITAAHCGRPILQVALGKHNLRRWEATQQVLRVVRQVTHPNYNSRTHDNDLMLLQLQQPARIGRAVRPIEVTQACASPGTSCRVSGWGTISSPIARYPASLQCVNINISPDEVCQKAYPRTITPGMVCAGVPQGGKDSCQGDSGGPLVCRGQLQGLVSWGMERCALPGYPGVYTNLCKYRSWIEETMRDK
The experiment in a line: Non-TMPRSS2 protease panel: Kallikrein 14. The note with it: 10-dose, 3-fold from 10 μM. The protocol: as §1

In assay [13] the target is TACE (Homo sapiens, UniProt P78536). The experiment in a line: Non-TMPRSS2 protease panel: TACE. The note with it: 10-dose, 3-fold from 10 μM. On the procedure: as §1
Chain of TACE (P78536 215-824): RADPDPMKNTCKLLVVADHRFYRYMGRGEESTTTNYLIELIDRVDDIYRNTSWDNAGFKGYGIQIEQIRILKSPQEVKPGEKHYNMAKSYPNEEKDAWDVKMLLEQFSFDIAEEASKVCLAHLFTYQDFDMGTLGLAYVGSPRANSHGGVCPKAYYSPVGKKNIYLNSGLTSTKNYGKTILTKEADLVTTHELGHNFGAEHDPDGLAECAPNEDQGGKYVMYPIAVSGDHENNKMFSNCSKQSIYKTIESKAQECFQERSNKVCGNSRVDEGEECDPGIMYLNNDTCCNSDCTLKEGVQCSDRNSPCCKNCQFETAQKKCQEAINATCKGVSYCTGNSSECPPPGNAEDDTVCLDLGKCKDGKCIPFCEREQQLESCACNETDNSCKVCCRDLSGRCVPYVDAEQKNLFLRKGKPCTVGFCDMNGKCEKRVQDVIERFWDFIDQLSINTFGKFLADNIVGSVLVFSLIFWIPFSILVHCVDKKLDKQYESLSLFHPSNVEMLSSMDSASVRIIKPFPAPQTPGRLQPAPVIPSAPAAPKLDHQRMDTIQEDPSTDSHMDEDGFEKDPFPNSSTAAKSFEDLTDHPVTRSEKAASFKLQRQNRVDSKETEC
The target of assay [14] is T6, Recombinant human TMPRSS2 protein (106-492 aa) (Homo sapiens, UniProt O15393).
T6 construct: Human TMPRSS2-(AA 106-492)-; purchased CusaBio CSB-YP023924HU; host or cells: yeast
T6 sequence (O15393 106-492): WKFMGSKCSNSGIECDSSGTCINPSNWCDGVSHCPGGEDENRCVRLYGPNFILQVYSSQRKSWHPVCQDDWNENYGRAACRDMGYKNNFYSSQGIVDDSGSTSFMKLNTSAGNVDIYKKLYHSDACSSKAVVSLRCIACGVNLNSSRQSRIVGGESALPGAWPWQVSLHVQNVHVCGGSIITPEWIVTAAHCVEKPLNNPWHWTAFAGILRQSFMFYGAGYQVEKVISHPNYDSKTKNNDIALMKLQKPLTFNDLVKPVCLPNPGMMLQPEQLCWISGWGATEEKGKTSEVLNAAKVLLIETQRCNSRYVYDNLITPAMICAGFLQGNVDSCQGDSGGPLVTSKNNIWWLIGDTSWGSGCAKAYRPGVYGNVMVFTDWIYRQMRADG
The experiment in a line: TMPRSS2 Assay 1 (Example 41), fluorogenic Boc-Gln-Ala-Arg-AMC cleavage. The note with it: TMPRSS2 10 nM, substrate 25 μM, 20 min pre-incubation. On the procedure:
The enzyme (TMPRSS2, CusaBio cat #CSB-YP023924HU. Recombinant human TMPRSS2 protein (106-492 aa)N-terminal 6×His-tagged (“6×His” disclosed as SEQ ID NO: 4), expressed in yeast cells; MW=44.8 kDa, lyophilized from 20 mM: Tris HCl, 0.5 M NaCl, 6% Trehalose, pH 8.0, >85% purity as determined by SDS-PAGE. Uniprot: 015393; 10 nM in the reaction) and substrate (Boc-Gln-Ala-Arg-AMC; Enzo Cat #BML-P237-0005, MW=581.76 Da. 25 μM in the reaction) were prepared in Reaction Buffer (50 mM Tris-HCl pH 8, 150 mM NaCl, 0.005% Brij35, 1% DMSO). After the enzyme solution was delivered into the reaction well, the compounds in DMSO were delivered to the reaction mixture by using Acoustic Technology (Echo 550, LabCyte Inc. Sunnyvale, CA) in nanoliter range. After 20 min pre-incubation, the substrate solution was delivered into the reaction well to initiate the reaction. The enzyme activities were monitored every 5 min as a time-course measurement of the increase in fluorescence signal from fluorescently-labeled peptide substrate for 120 min. at room temperature. Data was analyzed by taking slope*(signal/time) of linear portion of measurement. The slope was calculated using Excel, and the curve fits were performed using Prism software.

Chain of MMP 10 (P09238 99-476): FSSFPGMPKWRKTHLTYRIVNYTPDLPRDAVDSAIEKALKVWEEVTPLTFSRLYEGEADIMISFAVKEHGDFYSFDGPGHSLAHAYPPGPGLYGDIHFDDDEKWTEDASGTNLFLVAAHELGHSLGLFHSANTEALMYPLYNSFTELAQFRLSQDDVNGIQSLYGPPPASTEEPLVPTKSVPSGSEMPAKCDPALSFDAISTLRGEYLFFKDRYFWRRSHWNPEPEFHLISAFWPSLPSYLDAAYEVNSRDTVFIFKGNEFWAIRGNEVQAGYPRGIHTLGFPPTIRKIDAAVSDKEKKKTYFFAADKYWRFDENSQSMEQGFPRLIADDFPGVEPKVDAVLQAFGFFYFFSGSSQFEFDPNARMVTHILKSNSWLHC
Chain of Cathepsin L (P07711 114-333): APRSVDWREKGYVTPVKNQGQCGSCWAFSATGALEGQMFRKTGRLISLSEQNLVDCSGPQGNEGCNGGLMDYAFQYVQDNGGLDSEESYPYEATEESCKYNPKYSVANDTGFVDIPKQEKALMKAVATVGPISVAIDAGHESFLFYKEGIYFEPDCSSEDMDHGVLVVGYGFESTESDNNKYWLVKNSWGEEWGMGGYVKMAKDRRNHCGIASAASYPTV
Chain of Plasma Kallikrein (P03952 391-638 limits assumed): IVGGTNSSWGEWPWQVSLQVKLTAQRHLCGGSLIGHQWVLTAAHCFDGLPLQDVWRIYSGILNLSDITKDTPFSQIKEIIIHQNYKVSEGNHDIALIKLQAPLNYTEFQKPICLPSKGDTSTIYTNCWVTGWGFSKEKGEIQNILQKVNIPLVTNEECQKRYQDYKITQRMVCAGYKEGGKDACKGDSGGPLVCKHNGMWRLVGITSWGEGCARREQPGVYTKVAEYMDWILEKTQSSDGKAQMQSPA
Chain of Plasma Kallikrein (P03952 20-390 partner limits assumed): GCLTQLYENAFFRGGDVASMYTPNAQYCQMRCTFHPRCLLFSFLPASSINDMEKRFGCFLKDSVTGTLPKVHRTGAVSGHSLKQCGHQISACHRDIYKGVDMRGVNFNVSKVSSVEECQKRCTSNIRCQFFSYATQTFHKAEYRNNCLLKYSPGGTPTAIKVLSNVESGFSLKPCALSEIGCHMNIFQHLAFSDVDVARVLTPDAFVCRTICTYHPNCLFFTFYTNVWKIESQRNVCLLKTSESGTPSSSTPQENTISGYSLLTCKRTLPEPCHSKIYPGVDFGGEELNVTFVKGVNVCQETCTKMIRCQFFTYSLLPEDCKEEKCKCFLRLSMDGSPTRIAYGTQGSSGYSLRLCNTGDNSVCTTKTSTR
Chain of Tryptase b2 (P20231 31-275): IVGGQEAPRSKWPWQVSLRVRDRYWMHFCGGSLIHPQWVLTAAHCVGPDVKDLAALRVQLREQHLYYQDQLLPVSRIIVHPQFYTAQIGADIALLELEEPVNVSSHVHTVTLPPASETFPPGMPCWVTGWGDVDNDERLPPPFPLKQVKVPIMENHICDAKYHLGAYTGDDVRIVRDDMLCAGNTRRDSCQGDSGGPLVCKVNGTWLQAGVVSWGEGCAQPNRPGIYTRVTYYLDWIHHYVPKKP

Regarding `COc1ccc2nc(C(Cc3cccc(C(=N)N)c3)NS(=O)(=O)c3ccccc3)sc2c1` (stereo not shown) [Compound 11, 3-[2-Benzenesulfonamido-2-(6-methoxy-1,3-benzothiazol-2-yl)ethyl]benzene-1-carboximidamide], the IC50 was over 10 µM in assay [1]; over 10 µM in assay [2]; over 10 µM in assay [3]; under 10 µM in [4]; over 10 µM in assay [5]; over 10 µM in [6] (Factor Xa). The IC50 in assay [7], in assay [8], in assay [9] (Factor XIa), in assay [10], in [11] and in assay [12] was over 10 µM in each case. In assay [13], this compound gave an IC50 of over 10 µM.

Regarding `N=C(N)c1cccc(CC(NS(=O)(=O)c2cccc(-c3ccc(Cl)cc3Cl)c2)c2nc3ccccc3s2)c1` (racemic) [3 (racemic), 3-[2-(1,3-Benzothiazol-2-yl)-2-{2′,4′-dichloro-[1,1′-biphenyl]-3-sulfonamido}ethyl]benzene-1-carboximidamide], the IC50 in assay [1] is over 10 µM; in assay [2] it was over 10 µM; in [3], over 10 µM; in assay [14], under 10 µM; in [4], over 10 µM; in [5], under 10 µM. For the same compound, the IC50 in assay [6] (FXa) was under 10 µM; in assay [7], over 10 µM; in assay [8], under 10 µM; in assay [9] (FXIa), over 10 µM; in [10], over 10 µM; in [11], under 10 µM. For the same compound, the IC50 in assay [12] and in assay [13] was over 10 µM each time.

`N=C(N)c1cccc(C[C@H](NS(=O)(=O)c2ccccc2)c2nnco2)c1` (single isomer, unassigned) [Compound 2 (enantiomer 1, batch 1), 3-[2-Benzenesulfonamido-2-(1,3,4-oxadiazol-2-yl)ethyl]benzene-1-carboximidamide]: the IC50 in assay [1], in assay [2], in assay [3], in [14], in assay [4] and in assay [5] was over 10 µM each time. Besides, the IC50 in assay [6] (FXa), in assay [7], in assay [8], in assay [9] (FXIa), in [10] and in assay [11] was over 10 µM throughout. Further, the concentration for half-maximal inhibition (IC50) in assay [12] and in assay [13] was over 10 µM throughout.

For `N=C(N)c1cccc(CC(NS(=O)(=O)c2ccccc2)c2nc3ccccc3s2)c1` (racemic) [1 (racemic mixture, batch 1), 3-[2-Benzenesulfonamido-2-(1,3-benzothiazol-2-yl)ethyl]benzene-1-carboximidamide], the IC50 in assay [1] was over 10 µM; in [2] it was over 10 µM; in [3], over 10 µM; in assay [14], under 10 µM; in assay [4], under 10 µM; in assay [5], over 10 µM. For the same compound, the IC50 in [6] (FXa), in assay [7], in assay [8], in assay [9] (FXIa), in assay [10] and in assay [11] was over 10 µM throughout. In addition, the IC50 in [12] and in assay [13] was over 10 µM in each case.

The record behind these values is US20240132457A1, “3-(2-(BENZO[D]THIAZOL-2-YL)-2-(PHENYLSUFONAMIDO)ETHYL)BENZIMIDAMIDE DERIVATIVES AND RELATED COMPOUNDS AS TMPRSS2 INHIBITORS FOR THE TREATMENT OF VIRAL INFECTIONS” (INTEGERBIO, INC., priority 2020, published 2024).
